# According to US9399032B2, “Methods and compositions for treating degenerative and ischemic disorders” (The General Hospital Corporation, priority 2009, dated 2016):
# Structures can show the parent of a compound that is named as a salt.
# Tested on: MCH58 fibroblasts
# Test: Glucose versus galactose cell growth screen (metabolic state-dependent lethality)
# Settings: approximately 10 μM compound, 72 hours; log10 fold change of normalized cell number in glucose versus galactose
# Method: The assay included monitoring or measuring cell growth in cells that are grown in glucose (which allows the cell to utilize glycolysis) or in galactose (which switches the cell energy production from glycolysis to the OXPHOS pathway).
# The high glucose medium was replaced with 10 mM glucose or 10 mM galactose wherever indicated. All media contained 1 mM pyruvate and 4 mM glutamine.
# Cell number quantification high throughput assays were performed as follows. […] 24 hours later, cells were washed twice in PBS and media was replaced with either 10 mM glucose or 10 mM galactose containing media.
# Approximately 100 nL of each compound was pin-transferred in duplicate into the plates with a steel pin array using the CyBi-Well robot (CyBio). […] Compound-treated plates were incubated at 37° C. for 72 hours. […] Wells were then washed once and stored in PBS. Cell culture plates were stored at 4° C. until time of imaging, which was at most 24 hours after fixation.
# Imaging was performed by Arrayscan VTi automated microscope (ThermoFisher Scientific) with the use of an automated plate stacker. Appropriate filter sets for the detection of the Hoescht fluorescent signal were used. Four non-overlapping images at 5× magnification (NA 0.25) were acquired for a field of view of 1.3 mm×1.3 mm per image. The plate stacker and microscope including an auto-focusing algorithm were controlled entirely with ArrayScan software. Images were captured and stored simultaneously in at least two independent locations. Image analysis was performed using the freely available open-source software package CellProfiler. […] Images were analyzed individually by first identifying nuclei using the Hoescht staining signal.
# Total number of nuclei per field were recorded, and the four images per well were totaled to give the cell count per well. Computation was performed using a UNIX computer cluster. Appropriate masking of each nucleus was ensured by visually monitoring each batch at its onset and intermittently throughout the run.
# The fibroblast cells were seeded on Day 0 and incubated for 24 hours in standard culture media.
# Normalized cell counts were computed separately for each 96-well plate by dividing the cell count of each well with the trimmed mean (the average after discarding the largest and smallest value) of the cell counts for the 16 DMSO treated wells. […] The remaining replicate measurements were averaged, and fold changes were computed as the ratio between the average normalized counts for the glucose and galactose screens. To evaluate statistical significance, Z-scores were computed for each well against the DMSO (null) distribution and averaged Z-scores across replicates. Wells with average Z-score greater than 2.5 were considered significant.
# By jointly analyzing the glucose and galactose results, a glucose-galactose cell growth ratio can be calculated (Sglu/gal) that represents the log10 fold-change in cell growth in a glucose rich media divided by the log10 fold-change in cell growth in a galactose rich media. […] Low Sglu/gal scores (e.g., ranging between approximately (−) 0.1 to (−) 0.7) may arise from inhibition of glycolysis or from inhibition of proliferation, since cells grown in glucose-rich media divide more rapidly.
row,Molecule,Sglu/gal (log10 fold change) Score
1,C=C1C(=O)O[C@@H]2C[C@@]3(C)CCC[C@H](C)C3=C[C@H]12 [helenine],−0.22
2,COc1cc2c(cc1OC)[C@@H]1C(=O)c3ccc4oc(C(C)C)cc4c3O[C@@H]1CO2 [Isorotenone],0.71
3,C[C@H]1CC[C@]2(NC1)O[C@H]1C[C@H]3[C@@H]4CC[C@H]5C[C@@H](O[C@@H]6O[C@H](CO)[C@H](O[C@@H]7O[C@H](CO)[C@@H](O)[C@H](O[C@@H]8OC[C@@H](O)[C@H](O)[C@H]8O)[C@H]7O[C@@H]7O[C@H](CO)[C@@H](O)[C@H](O)[C@H]7O)[C@H](O)[C@H]6O)CC[C@]5(C)[C@H]4CC[C@]3(C)[C@H]1[C@@H]2C [tomatine],−0.64
4,Cc1cc(N)c2ccccc2[n+]1CCCCCCCCCC[n+]1c(C)cc(N)c2ccccc21 [Dequalinium dichloride],0.42
5,CC(C)=CCC[C@]1(C)C=Cc2c(O)c3c(c(CC=C(C)C)c2O1)O[C@]12C(=C[C@@H]4C[C@H]1C(C)(C)O[C@@]2(C/C=C(/C)C(=O)O)C4=O)C3=O [gambogic acid],−0.34
6,"CC1(C)C(=O)C=C[C@]2(C)[C@H]3CC[C@@]4(C)[C@H](c5ccoc5)OC(=O)[C@H]5O[C@]54[C@]3(C)C=C[C@@H]12 [7-desacetoxy-6,7-dehydrogedunin]",−0.22
7,Cl.Cl.O=C1c2c(O)ccc(O)c2C(=O)c2c(NCCNCCO)ccc(NCCNCCO)c21 [mitoxanthrone hydrochloride],−0.73
8,COc1ccc(Cc2nccc3cc(OC)c(OC)cc23)cc1OC [Papaverine hydrochloride],0.30
9,CC1(C)C(=O)C=C[C@@]2(C)C1=C(O)C(=O)[C@]1(C)[C@@H]2CC[C@@]2(C)[C@H](c3ccoc3)C[C@H]3O[C@]321 [cedrelone],−0.22
10,CCN[C@H]1C[C@H](C)S(=O)(=O)c2sc(S(N)(=O)=O)cc21 [Dorzolamide hydrochloride],0.17
11,N=C(N)c1ccc(OCCCCCOc2ccc(C(=N)N)cc2)cc1 [Pentamidine isethionate],0.24
12,CCCCC(CC)CNC(=N)NC(=N)NCCCCCCNC(=N)NC(=N)NCC(CC)CCCC (centres unmarked) [Alexidine dihydrochloride],0.44
13,CC1=C(O)C(=O)C=C2C1=CC=C1[C@@]2(C)CC[C@@]2(C)[C@@H]3C[C@](C)(C(=O)O)CC[C@]3(C)CC[C@]12C [celastrol],−0.29
14,CCN(CC)CCOc1ccc(C(=C(Cl)c2ccccc2)c2ccccc2)cc1 [Clomiphene citrate],0.21
15,CC(C)c1c(O)ccc2c1CCC1C(C)(C(=O)O)CCCC21C (centres unmarked) [Totarol-19-carboxylic acid],0.80
16,COc1cc2c(cc1OC)[C@@H]1C(=O)c3c(O)cc4c(c3O[C@@H]1CO2)C=CC(C)(C)O4 [Alpha-toxicarol],0.91
17,CC[C@H]1CN2CCc3cc(OC)c(OC)cc3[C@@H]2C[C@@H]1C[C@H]1NCCc2cc(OC)c(OC)cc21 [emetine],−0.22
18,COc1cc([C@@H]2c3cc4c(cc3[C@H](O)[C@H]3COC(=O)[C@H]23)OCO4)cc(OC)c1OC [Podophyllotoxin],−0.27
19,CCCCc1ccc2[nH]c(NC(=O)OC)nc2c1 [Parbendazole],−0.24
20,CC[n+]1c(-c2ccccc2)c2cc(N)ccc2c2ccc(N)cc21 [homidium bromide],−0.54

row,Molecule,Sglu/gal (log10 fold change) Score
1,Clc1ccc(C(Cn2ccnc2)OCc2csc3c(Cl)cccc23)c(Cl)c1 (centres unmarked) [Sertaconazole nitrate],0.19
2,Cc1cc(C(C)(C)CC(C)(C)C)ccc1OCCOCC[N+](C)(C)Cc1ccccc1.[Cl-] [Methyl benzethonium chloride],0.80
3,CC[C@@]1(O)C[C@H](O[C@H]2C[C@H](N(C)C)[C@H](O)[C@H](C)O2)c2c(cc3c(c2O)C(=O)c2c(O)cccc2C3=O)[C@H]1C(=O)OC [aklavine hydrochloride],−0.33
4,C[C@]12CC[C@H](O)C[C@H]1CC[C@@H]1[C@@H]2[C@H](O)C[C@]2(C)[C@@H](C3=CC(=O)OC3)CC[C@]12O [sarmentogenin],−0.21
5,CC(=O)O[C@H]1CC[C@@]2(C)[C@H](CC[C@@H]3[C@@H]2CC[C@]2(C)[C@@H](C4=CC(=O)OC4)[C@@H](OC(C)=O)C[C@]32O)C1 [gitoxigenin diacetate],−0.21
6,C=C1CC[C@@H]2[C@](C)(CO)[C@H](O)CC[C@@]2(C)[C@@H]1C/C=C1/C(=O)OC[C@H]1O [andrographolide],−0.46
7,CC(=O)O[C@H]1C(=O)[C@@]2(C)[C@H]([C@H](OC(=O)c3ccccc3)[C@]3(O)C[C@H](OC(=O)[C@H](O)[C@@H](NC(=O)c4ccccc4)c4ccccc4)C(C)=C1C3(C)C)[C@]1(OC(C)=O)CO[C@@H]1C[C@@H]2O [paclitaxel],−0.22
8,COc1cc2c(cc1OC)[C@@H]1C(=O)c3ccc(O)c(CC=C(C)C)c3O[C@@H]1CO2 [Rotenonic acid],0.33
9,CN(C/C=C/c1ccccc1)Cc1cccc2ccccc12 [Naftifine hydrochloride],0.19
10,Nonoxynol-9,0.46
11,CO[C@H]1[C@H](O)[C@H](O[C@H]2CC[C@@]3(C)[C@H](CC[C@@H]4[C@@H]3CC[C@]3(C)[C@@H](C5=CC(=O)OC5)CC[C@]43O)C2)O[C@@H](C)[C@@H]1O [neriifolin],−0.21
12,"COc1cc2c(cc1OC)[C@@H]1C(=O)c3ccc(OC)c(CC=C(C)C)c3O[C@@H]1CO2 [Rotenonic acid, methyl ether]",0.34
13,C#C[C@]1(OC(C)=O)CC[C@H]2[C@@H]3CCC4=C[C@@H](OC(C)=O)CC[C@@H]4[C@H]3CC[C@@]21C [Ethynodiol diacetate],0.15
14,CN1CCC[C@@H]1CCO[C@](C)(c1ccccc1)c1ccc(Cl)cc1 [Clemastine fumarate],0.19
15,CCCCCCc1ccc(O)cc1O.Nc1c2ccccc2nc2ccccc12 [acrisorcin],−0.36
16,Oc1c(Cl)cc(Cl)c2cccnc12 [chloroxine],−0.23
17,COc1ccc(C[C@H]2NC[C@H](O)[C@H]2OC(C)=O)cc1 [anisomycin],−0.24
18,C=C1C(=O)O[C@H]2C[C@@H]1C(OC(C)=O)C/C(C)=C/CC/C(C)=C/CC[C@@]2(C)O (some centres unmarked) [crassin acetate],−0.35
19,CC(=O)O[C@@H]1C[C@@]2(C)[C@H](c3ccoc3)C[C@H]3O[C@]32[C@]2(C)C(=O)C(O)=C3C(C)(C)C(=O)C=C[C@]3(C)[C@@H]12 [anthothecol],−0.30
20,CO[C@H]1C=C[C@@]23c4cc5c(cc4CN(C[C@@H]2O)[C@H]3C1)OCO5 [crinamine],−0.22

row,Molecule,Sglu/gal (log10 fold change) Score
1,CCCCCCCCCCCCCCCC[N+](C)(C)CCN(Cc1ccc(OC)cc1)c1ncccn1 [Thonzonium bromide],0.38
2,picropodophyllotoxin acetate,−0.24
3,Cc1c(O)c(O)cc2c1CC=C1[C@@]2(C)CC[C@@]2(C)[C@@H]3C[C@](C)(C(=O)O)CC[C@]3(C)CC[C@]12C [dihydrocelastrol],−0.31
4,O=C(N/N=C/c1ccc([N+](=O)[O-])o1)c1ccc(O)cc1 [Nifuroxazide],0.34
5,CC(C)N(C(=O)CCl)c1ccccc1 [propachlor],−0.26
6,CO[C@@H]1C[C@@H](C[C@H]2CC[C@H](C)[C@H]([C@@H](C)C(=O)O)O2)O[C@]2(O[C@](C)([C@H]3CC[C@@](C)([C@@H]4O[C@@H]([C@H]5O[C@@](O)(CO)[C@H](C)C[C@@H]5C)C[C@@H]4C)O3)C[C@H]2C)[C@@H]1C [nigericin sodium],−0.31
7,COc1ccccc1OCCNCC(O)COc1cccc2[nH]c3ccccc3c12 (centres unmarked) [Carvedilol],0.15
8,CC[C@@]1(O)C[C@H](O[C@H]2C[C@H](N(C)C)[C@H](O)[C@H](C)O2)c2c(cc3c(c2O)C(=O)c2c(O)ccc(O)c2C3=O)[C@H]1C(=O)OC [pyrromycin],−0.30
9,O=C(Nc1ccc([N+](=O)[O-])cc1Cl)c1cc(Cl)ccc1O [Niclosamide],0.15
10,COc1cc2c(cc1OC)[C@@H]1C(=O)c3ccc4c(c3O[C@@H]1CO2)CC(C(C)C)O4 (stereo partly drawn) [Beta-dihydrorotenone],0.85
11,C[C@@]12C(=O)OC(=O)[C@]1(C)[C@H]1CC[C@@H]2O1 [cantharidin],−0.33
12,CCN(CC)CCCC(C)Nc1c2ccc(Cl)cc2nc2ccc(OC)cc12 (centres unmarked) [quinacrine hydrochloride],−0.30
13,COc1cc2c(c(OC)c1OC)-c1ccc(OC)c(=O)cc1[C@@H](NC(C)=O)CC2 [Colchicine],−0.26
14,Deguelin(-),0.69
15,COc1c(-c2coc3cc4c(cc3c2=O)CC(O)C(C)(C)O4)ccc2c1C=CC(C)(C)O2 (centres unmarked) [Mundulone],0.50
16,CCOC(=O)C1=C[C@]2(CC)CCCN3CCc4c(n1c1ccccc41)[C@@H]32 [Vinpocetine],0.23
17,OC(c1cc(C(F)(F)F)nc2c(C(F)(F)F)cccc12)C1CCCCN1 (centres unmarked) [Mefloquine],0.20
18,COc1cc(C(=O)O)c2c(c1C)OC(=O)c1c(C)cc(O)c(C=O)c1O2 [Psoromic acid],0.35
19,C[C@@H]1CC[C@H]2[C@@H](C)C(=O)O[C@@H]3O[C@@]4(C)CC[C@@H]1[C@]32OO4 [Artemisinin],0.17

# Same assay, conditions: approximately 10 μM compound, 72 hours; log10 fold change of normalized cell number in glucose versus galactose; listed as Methylbenzethonium chloride
row,Molecule,Sglu/gal (log10 fold change) Score
1,Cc1cc(C(C)(C)CC(C)(C)C)ccc1OCCOCC[N+](C)(C)Cc1ccccc1.[Cl-] [Methyl benzethonium chloride],0.46

# Same assay, conditions: galactose versus glucose
row,Molecule,inhibitory activity against cell growth in galactose (SAR analysis)
1,CN(C)CCC=C1c2ccccc2CCc2ccccc21 [amitriptyline],moderate inhibitory activity
2,CNCCC=C1c2ccccc2CCc2ccccc21 [nortriptyline],moderate inhibitory activity
